Like-named read-outs stand apart in the source and are kept apart here.
Key:
[1] = Solubility of system at 1 wt % with hardness; assay type: physicochemical
Text: Stock solutions of all species were made at 1% by weight in deionized water. […] […] […] Additionally a modified LAS (MLAS) was chosen for comparison.

[2] = Dynamic interfacial tension analysis (dIFT), ascending canola oil drop in aqueous surfactant solution; assay type: physicochemical; settings: 200 ppm surfactant, pH 8.3-8.5, canola oil
Method: Method—Dynamic Interfacial Tension Analysis (dIFT) Dynamic Interfacial Tension analysis was performed on a Krüss® DVT30 Drop Volume Tensiometer (Krüss USA, Charlotte, N.C.). The instrument was configured to measure the interfacial tension of an ascending oil drop in the aqueous surfactant solution. The oil used was canola oil (Crisco Pure Canola Oil manufactured by The J.M. Smucker Company). The aqueous surfactant and oil phases were temperature controlled at 21.1° C. (+/−1° C.), via a recirculating water temperature controller attached to the tensiometer. A dynamic interfacial tension curve was generated by dispensing the oil drops into the aqueous surfactant phase from an ascending capillary with an internal diameter of 0.2540 mm, over a range of flow rates and measuring the interfacial tension at each flow rate. Data is generated at oil dispensing flow rates of 500 μL/min to 1 μL/min with 2 flow rates per decade on a logarithmic scale (7 flow rates measured in this instance). Interfacial tension was measured on three oil drops per flow rate and then averaged. Interfacial tension was reported in units of mN/m. Surface age of the oil drops at each flow rate is also recorded and plots can be generated either of interfacial tension (y-axis) versus oil flow rate (x-axis) or interfacial tension (y-axis) versus oil drop surface age (x-axis). […] Example of analysis of a 200 ppm surfactant concentration, with water hardness (3:1 Ca:Mg) of 6 or 20 grains per gallon (gpg) as noted, 21.1° C., pH 8.3-8.5: Sample was analyzed as described above. Density settings for 21.1° C. were set at 0.917 g/ml for Canola Oil and 0.998 g/ml for aqueous surfactant phase (assumed to be the same as water since dilute solution). To a 100 ml volumetric flask was added 2.00 mL of 1% (wt/wt) Surfactant solution in deionized water and the volumetric is then filled to the mark with 6.12 gpg water for target 6 gpg solution or 20.408 gpg water for target 20 gpg solution, (3:1 CaCl2:MgCl2 solution) and mixed well. The solution was transferred to a beaker and the pH adjusted to 8.3-8.5 by addition of a few drops of 0.1 N NaOH or 0.1 N H2SO4. The solution is then loaded into the tensiometer measurement cell and analyzed. Total time from addition of hardness to surfactant to time loaded into tensiometer is 5 minutes. The following surfactants were analyzed via dIFT measurements. Surfactants were analyzed at a level of 200 ppm. Analysis conditions are in water of both 6 and 20 gpg Calcium/Magnesium water hardness level (3:1 calcium:magnesium), 21.1° C. and adjusted to pH 8.3-8.5.

[3] = 1% solution by weight in deionized water
[4] = 1% solution by weight in deionized water, heated to approximately 55° C.
[5] = aliquot of 1% solution diluted to 200 ppm with 6.122 gpg water
[6] = solution hardness 6 gpg (3:1 Calcium:Magnesium)
[7] = solution hardness 20 gpg (3:1 Calcium:Magnesium)

Row | Compound | Soluble at Room Temperature [1, 3] | Soluble after heating to ≈55° C. [1, 4] | Soluble after addition of 6 gpg hardness (for at least 30 minutes) [1, 5] | IFT @ 1 μL/min Oil Flowrate, 21.1° C. [2, 6] | IFT @ 1 μL/min Oil Flowrate, 21.1° C. [2, 7] | Soluble after addition of 6 gpg hardness (for at least 30 minutes) [1] | Soluble after heating to ≈55° C. [1] | Soluble at Room Temperature [1]
1 | CCCCCCCCCCC(C)c1ccc(S(=O)(=O)[O-])o1.[Na+] (centres unmarked) [C12 2-furan AFS, sodium 5-(dodecan-2-yl)furan-2-sulfonate] | Yes | Yes | Yes | 1.15 mN/m | 0.94 mN/m |  |  | 
2 | sodium 5-dodecanfuran-2-sulfonate [C12 1-furan AFS] | No | Yes | Yes |  |  |  |  | 
3 | CCCCCCCCCC(C)c1ccc(S(=O)(=O)[O-])o1.[Na+] (centres unmarked) [C11 2-furan AFS, sodium 5-(undecan-2-yl)furan-2-sulfonate] | Yes | Yes | Yes | 7.25 mN/m | 4.03 mN/m |  |  | 
4 | CCCCCCCCCCC(C)c1ccc(S(=O)(=O)O)cc1 (centres unmarked) [C12 2-phenyl LAS, reference compound] | No | Yes | did not remain soluble and No |  |  |  |  | 
5 | CCCCCCCCCCCCCc1ccc(S(=O)(=O)[O-])o1.[Na+] [C13 1-furan AFS, sodium 5-tridecanfuran-2-sulfonate] |  |  |  | 0.08 mN/m | 0.08 mN/m | Yes | Yes | No
6 | CCCCCCCCCCCCc1ccc(S(=O)(=O)[O-])o1.[Na+] [C12 1-furan AFS, sodium 5-dodecanfuran-2-sulfonate] |  |  |  | 0.31 mN/m | 0.25 mN/m |  |  | 
